“And” between values parts separate entries of the source, which are not always exact repeats. Identical values can stand only once.
Molecular target: T1, Amyloid-beta A4 precursor protein-binding family A member 1 (Rattus norvegicus, UniProt O35430)
T1 sequence (O35430 whole entry): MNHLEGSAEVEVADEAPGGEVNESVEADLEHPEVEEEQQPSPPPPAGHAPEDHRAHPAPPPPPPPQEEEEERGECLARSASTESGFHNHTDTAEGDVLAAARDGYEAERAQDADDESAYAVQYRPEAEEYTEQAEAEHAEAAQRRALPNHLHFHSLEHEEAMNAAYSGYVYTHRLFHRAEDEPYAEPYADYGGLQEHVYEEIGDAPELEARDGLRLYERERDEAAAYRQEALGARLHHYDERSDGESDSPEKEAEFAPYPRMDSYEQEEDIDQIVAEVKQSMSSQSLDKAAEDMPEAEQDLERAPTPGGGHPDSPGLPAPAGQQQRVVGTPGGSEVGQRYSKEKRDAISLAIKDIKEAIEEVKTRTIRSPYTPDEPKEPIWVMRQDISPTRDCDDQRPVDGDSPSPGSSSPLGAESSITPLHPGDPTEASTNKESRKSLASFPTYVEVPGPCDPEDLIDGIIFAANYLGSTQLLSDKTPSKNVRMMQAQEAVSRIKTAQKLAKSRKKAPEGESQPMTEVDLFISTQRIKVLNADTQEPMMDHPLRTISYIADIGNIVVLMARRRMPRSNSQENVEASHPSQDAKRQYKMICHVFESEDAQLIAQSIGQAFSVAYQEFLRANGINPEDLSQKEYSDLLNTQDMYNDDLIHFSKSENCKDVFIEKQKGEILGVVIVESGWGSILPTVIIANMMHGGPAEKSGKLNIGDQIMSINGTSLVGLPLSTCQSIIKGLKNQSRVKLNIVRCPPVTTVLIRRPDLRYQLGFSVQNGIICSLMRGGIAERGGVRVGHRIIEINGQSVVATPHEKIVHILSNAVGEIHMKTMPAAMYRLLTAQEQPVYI
Assay: disruptors of Mint-PDZ/N-type channel peptide interaction – biochemical, HTRF, SAR follow-up (AID 2489)

IC50	SMILES
16.2 µM	CCCCc1ccc(CC2=C(C(=O)OCC)C(=O)c3ccccc3C2=O)cc1
> 56.8 µM	CC12C=CC(C)(O1)c1c2c(O)n(-c2ccc3c(c2)OCO3)c1O
12 µM and 18.3 µM	CC(=O)Oc1cccc(-n2c(O)c3c(c2O)C2(C)C=CC3(C)O2)c1
> 56.8 µM	CC12C=CC(C)(O1)c1c2c(O)n(-c2ccc(Cl)cc2)c1O
11.5 µM	Cc1ccc(-n2c(O)c3c(c2O)C2(C)C=CC3(C)O2)cc1
10.7 µM	CC12C=CC(C)(O1)c1c2c(O)n(-c2ccc(F)cc2)c1O [2-(4-fluorophenyl)-4,7-dimethyl-3a,7a-dihydro-octahydro-1H-4,7-epoxyisoindole-1,3-dione]
27.6 µM	Cc1cccc(-n2c(O)c3c(c2O)C2(C)C=CC3(C)O2)c1 [4,7-dimethyl-2-(3-methylphenyl)-3a,7a-dihydro-octahydro-1H-4,7-epoxyisoindole-1,3-dione]
11.7 µM	CC12C=CC(C)(O1)c1c2c(O)n(-c2ccccc2)c1O [4,7-dimethyl-2-phenyl-3a,7a-dihydro-octahydro-1H-4,7-epoxyisoindole-1,3-dione]
7.82 µM	CC(=O)Oc1ccc(-n2c(O)c3c(c2O)C2(C)C=CC3(C)O2)cc1 [MLS000107813]
> 56.8 µM	COC(=O)c1cc(-n2c(O)c3c(c2O)C2(C)C=CC3(C)O2)ccc1Cl [MLS000107828]
7.19 µM	CCCc1ccc(CC2=C(C(=O)OCC)C(=O)c3ccccc3C2=O)cc1 [MLS000571357]
> 56.8 µM	CC(=O)Oc1ccc(-n2c(O)c3c(c2O)C2C=CC3O2)cc1 [[4-(1,3-dioxo-3a,4,7,7a-tetrahydro-octahydro-1H-4,7-epoxyisoindol-2-yl)phenyl] acetate]
